ChEMBL document CHEMBL1201862, “PubChem BioAssay data set” (2004)
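Where inhibition never reached the appropriate level, the endpoint shown equals the highest concentration tested. Otherwise, values were interpolated linearly from a five-concentration, 48-hour dose response in 96-well plates. GI50: concentration for 50% inhibition of growth.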 Active and inactive are the calls of the source. Rule as the data show it: active = GI50 up to about 1.1 µM and inactive = higher.

What was measured:
Experiment in all cases: inhibition of tumour cell growth, NCI panel, 48 h
[1] = system: KM-20L2
[2] = system: A549
[3] = system: IGROV-1
[4] = system: HL-60
[5] = system: 786-0
[6] = system: ACHN
[7] = system: SNB-75
[8] = system: OVCAR-5
[9] = system: HCT-15
[10] = system: SNB-19
[11] = system: PC-3
[12] = system: HCT-116
[13] = system: NCI-H226
[14] = system: OVCAR-8
[15] = system: HT-29
[16] = system: SW-620
[17] = system: SK-MEL-2
[18] = system: RXF 393
[19] = system: DU-145
[20] = system: SR

| SMILES | GI50 [1] | GI50 [2] | GI50 [3] | GI50 [4] | GI50 [5] | GI50 [6] | GI50 [7] | GI50 [8] | GI50 [9] [µM] | GI50 [10] | GI50 [11] | GI50 [12] | GI50 [13] | GI50 [14] | GI50 [15] | GI50 [16] | GI50 [17] | GI50 [18] | GI50 [19] | GI50 [20] |
| --- | --- | --- | --- | --- | --- | --- | --- | --- | --- | --- | --- | --- | --- | --- | --- | --- | --- | --- | --- | --- |
| NC(CSC(c1ccccc1)(c1ccccc1)c1ccccc1)C(=O)O (stereo not given) | 1.82 µM (inactive) | 0.822 µM (active) | 2.12 µM (inactive) | 0.433 µM (active) | 0.971 µM (active) | 7.89 µM (inactive) | 1.74 µM (inactive) | 15.4 µM (inactive) | 0.925 | 1.22 µM (inactive) | 1.61 µM (inactive) | 0.615 µM (active) | 3.59 µM (inactive) | 0.904 µM (active) | 2.94 µM (inactive) | 0.741 µM (active) | 0.605 µM (active) |  |  |  |
| O=S(=O)(c1ccccc1)C1CN(Cc2ccccc2)CCN(Cc2ccccc2)C1 | 35.2 µM (inactive) | 39.7 µM (inactive) | 35.8 µM (inactive) | 5.92 µM (inactive) | > 74 µM (inactive) | 39.4 µM (inactive) | 61.5 µM (inactive) | > 100 µM (inactive) | 25 | > 60.4 µM (inactive) | 8.71 µM (inactive) | 18.1 µM (inactive) | > 53.6 µM (inactive) | 14.4 µM (inactive) | 24.5 µM (inactive) | 24 µM (inactive) | 36.8 µM (inactive) | 10.4 µM (inactive) | 80.5 µM (inactive) | 7.76 µM (inactive) |
| COc1ccc(NC(=O)CC(=O)n2nc(-c3ccccc3)c(/N=N/c3ccc(C)cc3)c2-c2ccccc2)cc1 | > 78.2 µM (inactive) | 44 µM (inactive) | 16.9 µM (inactive) | > 100 µM (inactive) | 19.2 µM (inactive) | 32.5 µM (inactive) | 16.4 µM (inactive) | > 80 µM (inactive) | > 100 | 21.5 µM (inactive) | > 41.4 µM (inactive) | 34.1 µM (inactive) | 21.7 µM (inactive) | 21.7 µM (inactive) | > 88.3 µM (inactive) | 69.5 µM (inactive) | 32.7 µM (inactive) | 19.1 µM (inactive) | > 59.7 µM (inactive) | 47.2 µM (inactive) |
| O=[N+]([O-])c1ccc(C2CC(c3ccccc3Cl)=Nc3ccccc3S2)cc1 (stereo not given) | 4.74 µM (inactive) | 5.69 µM (inactive) | 7.23 µM (inactive) | 2.01 µM (inactive) | 3.69 µM (inactive) | 7.85 µM (inactive) | 4.21 µM (inactive) | 12.9 µM (inactive) | 5.35 | 4.3 µM (inactive) |  | 1.96 µM (inactive) | 6.87 µM (inactive) | 2.2 µM (inactive) | 4.35 µM (inactive) | 1.78 µM (inactive) | 11.7 µM (inactive) | 3.26 µM (inactive) |  | 2.01 µM (inactive) |
| CN(C)CCN1C(=O)c2cccc3cc([N+](=O)[O-])cc(c23)C1=O [MITONAFIDE] | 0.405 µM (active) | 0.0716 µM (active) | 0.5 µM (active) | 0.0676 µM (active) | 0.195 µM (active) | 0.0762 µM (active) | 0.194 µM (active) | 0.762 µM (active) | 0.29 | 0.25 µM (active) | 0.931 µM (active) | 0.261 µM (active) | 0.0789 µM (active) | 0.252 µM (active) | 0.301 µM (active) | 0.17 µM (active) | 1.37 µM (inactive) | 0.337 µM (active) | 0.286 µM (active) | 0.129 µM (active) |
